Experimental data published in patent publication US7112608B2, “Hydroxyphenylundecane, a process for their production and their use” (Sanofi-Aventis Deutschland GmbH, priority 2002, dated 2006).

How the values were obtained:
[1] = Physico chemical properties: solubility; type: physicochemical; conditions: solvents in which the compound is soluble
JNK3 = biological target: T1, JNK3 (Homo sapiens, UniProt P53779); test: JNK3 Assay (HTRF, JNK-3/GST-ATF2); type: biochemical; conditions: JNK3 kinase, GST-ATF2 substrate, 15 μM ATP solution, 20 min at 37° C.
T1 construct: Biotech, Vitry
T1 sequence (P53779 whole entry): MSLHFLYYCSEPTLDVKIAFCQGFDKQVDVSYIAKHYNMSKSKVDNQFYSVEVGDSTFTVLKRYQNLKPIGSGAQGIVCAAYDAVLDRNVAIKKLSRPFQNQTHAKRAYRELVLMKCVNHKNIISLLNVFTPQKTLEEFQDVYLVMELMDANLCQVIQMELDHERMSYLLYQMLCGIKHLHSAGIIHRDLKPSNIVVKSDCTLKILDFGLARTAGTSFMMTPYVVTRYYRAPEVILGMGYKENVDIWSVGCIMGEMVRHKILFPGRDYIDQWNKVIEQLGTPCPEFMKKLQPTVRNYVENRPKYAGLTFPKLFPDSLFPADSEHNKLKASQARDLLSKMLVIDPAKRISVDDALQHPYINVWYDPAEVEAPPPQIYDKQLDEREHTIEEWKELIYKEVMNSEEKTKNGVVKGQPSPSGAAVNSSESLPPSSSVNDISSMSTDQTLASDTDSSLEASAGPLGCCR
Protocol: The assay was performed on a Cybio pipetting system in the 384-well plate format. The final assay volume was 30 μl, comprising 10 μl of a probe (an extract or a pure substance-to-be-tested), 10 μl of an enzym-subtrate mixture (JNK-3/GST-ATF2) and 10 μl ATP solution. After 20 min incubation at 37° C. 50 μl HTRF abtibody mixture (XL665-anti-GST/(Eu)cryptat anti-P-ATF2) were added. The emission intensity of the energy transfer and of Eu at 665 and 615 nm, resp., were measured after 120 min at room temperature and stimulation of the probes at 340 nm in a Victor2® (Wallac).
Buffer I for diluting JNK3, GST-ATF2, ATP:
Buffer II for diluting HTRF reagents:
Each plate included 16 positiv controls (maximum energy transfer, buffer I instead of probe), 8 blank controls (minimal energy transfer, buffer 11 instead of ATP) and 8 wells containing a 200 μM EDTA solution.
The results were calculated as follows:
Signal Ration: SR=(intensity(665 nm)/intensity(615 nm)) Blank Correction: Delta F(%)=[…] Inhibition: Inhibition (%)=100×[1−(Delta F(Probe)/Delta F(max))

SMILES | Solubility [1] | IC50 (JNK3)
CCCCCCCCCCCc1cc(O)cc(O)c1C(=O)OC(CCC)CCCCCCCc1cc(OS(=O)(=O)O)cc(OS(=O)(=O)O)c1 (stereo not drawn) [Spinosulfate A] | Methanol, DMSO | 0.5 µM
CCCCCCCCCCCc1cc(O)cc(O)c1C(=O)OC(CCC)CCCCCCCc1cc(O)cc(O)c1 (stereo not drawn) [Spinosulfate B] | – | 10 µM
